Laboratory results: patent publication US20110130425A1, “Use of H3 Histaminergic Agonists for the Treatment of Addiction to Drugs of Abuse” (priority 2009, published 2011)
Entries after “also recorded” stand apart in the source; their conditions may differ.

Columns and labels:
[1] = test system: relapse into cocaine seeking; experiment: Relapse phase: rehabilitation test, relapse induced by a single dose of cocaine; assay type: in vivo, rat; details: L-histidine 500 mg/kg i.p. one hour before; cocaine 0.5 mg/kg; vs saline; rats
From the text: III. Relapse Phase: The relapse phase is studied by using a rehabilitation test. In this phase, the desire of the rats for the drug is again induced by the administration of a single dose of drug. At this instant, the rat again feels the desire to obtain the drug, and so it again begins to press on the lever to obtain the drug, but the drug is not available to the animal.
The behavior of the rats was also studied during the relapse phase, after the animals had gone through the extinction phase. In the extinction phase, the animals received no reward (dose of cocaine) when they pressed the lever. After a minimum of six extinction sessions, lasting 2 hours each session, carried out on consecutive days, the lever-pressing behavior of the rats diminished at least 20 times in comparison to the start of the extinction sessions.
When the number of times that the rats pressed the lever decreased, the animals were subjected to 4 hour rehabilitation sessions (i.e., relapse sessions). These rehabilitation sessions consisted initially of extinction sessions of 3 hours, followed by the automatic release, by an injection, of a saline solution or different doses of cocaine. During the fourth hour, the behavior of the animals was studied in regard to the number of times that they pressed the lever after the administration of the different doses of cocaine (0 mg/kg, 0.5 mg/kg and 2 mg/kg). The number of times that the lever was pressed increased in proportion to the dose of cocaine administered (cocaine at 0.5 mg/kg or 2 mg/kg administered intravenously, or saline in controls) (FIG. 8). However, this increase in the number of times that the animals pressed the lever was not rewarded with the administration of more cocaine. The number of times that the rats pressed the lever was indicative of the rat's need to find the drug. Even so, the pressing of the lever was not rewarded with more cocaine, which differentiates this stage from that corresponding to self-administration. […]

dopamine release = experiment: Nicotine stimulation of dopamine release in striatal miniprisms; assay type: cell-based, Sprague-Dawley rat; details: 0.5 mM L-histidine preincubation; 100 nM nicotine, 15 mM K+; rat striatal miniprisms; vs controls
Method: One male Sprague-Dawley rat obtained from Charles-River weighing 200-250 g is used. The rat brain is rapidly removed and placed in ice-cold oxygen-saturated (O2/CO2:95%/5%) Krebs bicarbonate buffer (124 mM NaCl, 0.8 mM KCl, 1.25 mM NaH2PO4, 1.2 mM KH2PO4, 0.67 mM MgSO4, 2.6 mM CaCl2, 10 mM glucose and 27.5 mM NaHCO3, pH 7.4). The striata is dissected and cut using a Mcllwain™ Mechanical Tissue Copper (Stoelting Co., Wood Dale, Ill.) into miniprisms of 0.3 mm/side. The microprims are transferred to ice-cold Krebs buffer, gently centrifuged, and the buffer changed to remove damaged tissue and cellular debris.
Brain miniprisms are distributed into 24 flat-bottom Eppendorf tubes and preincubated for 2 hours in 0.25 mL Krebs buffer at 37° C. using an Eppendorf Thermomixer® under a O2/CO2 atmosphere. Then the medium is replaced with fresh Krebs buffer at 37° C. with or without 0.5 mM L-histidine prepared in the same buffer. This concentration of L-histidine is similar to that reached in plasma of L-histidine-treated humans (Block et al., 1967). […]
All samples are then cooled down on ice and quickly centrifuged at 1000×g for 1 minute to separate buffer from tissue. […] An automatic autosampler Merck-Hitachi L-7200 and an automated fraction collector Gilson FC203B automatically recover internal standard dopamine peaks when UV detected into scintillation vials. […]

alcohol relapse behavior = experiment: Alcohol Deprivation Effect (ADE) paradigm; assay type: in vivo, rat; details: L-histidine; rats
Method: The effects of a H3 histaminergic ligand, such as L-histidine, are tested in our well-established model of relapse-like drinking behavior.
Alcohol Deprivation Effect (ADE) paradigm: All rats are given continuous access to tap water and to 5%, 10% and 20% (v/v) ethanol solutions in their home cages. Spillage and evaporation is minimized by the use of self-made bottles. All drinking solutions are renewed weekly and the positions of the four bottles are changed to avoid location preferences. After eight weeks of continuous access, ethanol solutions are repeatedly withdrawn for 3-21 days (deprivation phases) every four weeks until the rats become alcohol-dependent (as measured by a sucrose and quinine tests). The effects of a H3 histaminergic ligand are then tested on the expression of the alcohol deprivation effect (=relapse behavior). A second ADE study is initiated 3 months later in order to study the persistence of treatment efficacy.
Past pharmacological studies in home cage drinking models were hampered by the fact that measurements were performed at 24 hour intervals. Thus the exact temporal profile of drug treatment could not be assessed under home cage drinking conditions and sometimes pharmacological effects became masked by the use of measurements every 24 hours. This problem has now been solved in our lab by the use of a fully-automated drinkometer system. […]

N[C@@H](Cc1c[nH]cn1)C(=O)O [L-histidine]
lever pressing after relapse induced by a single dose of cocaine [1]: caused a decrease in the pressing on the lever; also recorded: diminished significantly | dopamine release caused by nicotine stimulation (dopamine release): less dopamine release | relapse into alcohol drinking after alcohol deprivation (alcohol deprivation effect) (alcohol relapse behavior): decreases relapse
